Data published in patent US20250051263A1, “NOVEL IONIZABLE LIPIDS AND LIPID NANOPARTICLES AND METHODS OF USING THE SAME” (Sail Biomedicines, Inc., priority 2021, published 2025).

Tests used:
Balb/c mice [1] = assay: In-vivo bioluminescent imaging after IV injection of Fluc mRNA LNP; details: Example 5 LNP (DOPE 35:16:46.5:2.5), IV, 5 μg FLUC + 5 μg EPO; for Bioluminescence (IV) Liver / Bioluminescence (IV) Lung / Bioluminescence (IV) Spleen / Bioluminescence (IV) Whole Body: 4-6 hours post-dose; for Spleen: Liver Ratio: ratio of bioluminescence
Description: (§1) 8-9 week old female Balb/c mice are utilized for bioluminescence-based ionizable lipid screening efforts. Mice are obtained from Jackson Laboratories (JAX Stock: 000651) and allowed to acclimate for one week prior to manipulations. Animals are placed under a heat lamp for a few minutes before introducing them to a restraining chamber. The tail is wiped with alcohol pads (Fisher Scientific) and 100 μL of a lipid nanoparticle composition descrbed above containing 10 ug total mRNA (5 ug Fluc+5 ug EPO) is injected intravenously using a 29 G insulin syringe (Covidien). Any resulting bleeding is stemmed using a sterile gauze pad (Fisher Scientific) and animals are placed back into their home cage. 4-6 hours post-dose, animals are injected with 200 μL of 15 mg/mL D-Luciferin (GoldBio) and placed in an isoflurane induction chamber set to deliver 2.5% isoflurane delivered at an oxygen flow rate of 1-2 liters per min. After 5 minutes of isoflurane exposure, mice are placed in set nose cones inside the IVIS Lumina LT imager (PerkinElmer). LivingImage software is utilized for imaging. Whole body bio-luminescence is captured at auto-exposure after which animals are removed from the IVIS and placed into a CO2 chamber for euthanasia. Cardiac puncture is performed on each animal after placing it in dorsal recumbency, and blood collection is performed using a 25 G insulin syringe (BD). Blood is collected in Lithium-Heparin coated tubes (Fisher Scientific) and immediately placed on ice. Once all blood samples are collected, tubes are spun at 2000 G for 10 minutes using a tabletop centrifuge and plasma is aliquoted into individual Eppendorf tubes (Fisher Scientific) and stored at −80 C for subsequent EPO quantification. EPO levels in plasma are determined using EPO MSD kit (Meso Scale Diagnostics).
(§2) 8-9 week old female Balb/c mice were utilized for bioluminescence-based ionizable lipid screening efforts. Mice were obtained from Jackson Laboratories (JAX Stock: 000651) and allowed to acclimate for one week prior to manipulations. Animals were placed under a heat lamp for a few minutes before introducing them to a restraining chamber. The tail was wiped with alcohol pads (Fisher Scientific) and, for each LNP composition descrbed above, 100 μL of a lipid nanoparticle composition descrbed above containing 10 μg total mRNA (5 μg Fluc+5 μg EPO, 5 μg Fluc+5 μg Cre, or 5 μg EGFP) was injected intravenously using a 29 G insulin syringe (Covidien).
(§3) 4-6 hours post-dose, animals were injected with 200 μL of 15 mg/mL D-Luciferin (GoldBio), and placed in set nose cones inside the IVIS Lumina LT imager (PerkinElmer). LivingImage software was utilized for imaging. Whole body bio-luminescence was captured at auto-exposure after which animals are removed from the IVIS and placed into a CO2 chamber for euthanasia. Cardiac puncture was performed on each animal after placing it in dorsal recumbency, and blood collection was performed using a 25 G insulin syringe (BD). Once all blood samples were collected, tubes are spun at 2000 G for 10 minutes using a tabletop centrifuge and plasma was aliquoted into individual Eppendorf tubes (Fisher Scientific) and stored at −80° C. for subsequent EPO quantification. EPO levels in plasma were determined using EPO MSD kit (Meso Scale Diagnostics).

[2] = mRNA encapsulation efficiency, Quant-iT RiboGreen RNA Assay; format: physicochemical; details: Example 5 LNP lipid:DOPE:Plant Cholesterol:DMPE-PEG2k 35:16:46.5:2.5, FLUC/EPO 1:1 mRNA, N:P 6:1
Excerpt: All other compositions (i.e., compositions of MC3 (a commercially available ionizable lipid having a chemical name of (6Z,9Z,28Z,31Z)-heptatriacont-6,9,28,31-tetraene-19-yl 4-(dimethylamino)butanoate, and compositions of novel ionizable lipids 7669, 7671, 7668, 767, 7650) are composed of ionizable lipid:structural lipid:sterol:PEG-lipid (SDA lipid #:DSPC:cholesterol:14:0 PEG2000 PE) at a molar ratio of […], respectively. Lipids are solubilized in ethanol. Compositions are then handled as above, except the formulations are maintained at ionizable lipid to mRNA N:P ratio of 6:1. The lipid mix and mRNA solution are mixed at a 1:3 ratio by volume, respectively, on a NanoAssemblr Ignite (Precision Nanosystems) at a total flow rate of 9 mL/min. Resulting compositions are then loaded into Slide-A-Lyzer G2 dialysis cassettes (10 k MWCO) and dialyzed in 200 times sample volume of 1×PBS for 4 hrs at room temp with gentle stirring. The PBS is refreshed, and the compositions are further dialyzed for at least 14 hrs at 4° C. with gentle stirring. The dialyzed compositions are then collected and concentrated by centrifugation at 2000×g using Amicon Ultra centrifugation filters (100 k MWCO). Concentrated particles are characterized for size, polydispersity, and particle concentration using Zetasizer Ultra (Malvern Panalytical) and for mRNA encapsulation efficiency using Quant-iT RiboGreen RNA Assay Kit (ThermoFisher Scientific).
The lipid mix and mRNA solution were mixed at a 1:3 ratio by volume, respectively, on the NanoAssemblr Ignite (Precision Nanosystems) at a total flow rate of 9 mL/min. Resulting formulations were then loaded into Slide-A-Lyzer G2 dialysis cassettes (10 k MWCO) and dialyzed in 200 times sample volume of 1×PBS for 2 hrs at room temperature. The PBS was refreshed, and the formulations were further dialyzed for at least 14 hrs at 4° C. with gentle stirring. The dialyzed formulations were then collected and concentrated by centrifugation at 3000×g using Amicon Ultra centrifugation filters (100 k MWCO). The concentrated formulations were characterized for size, polydispersity, and particle concentration using Zetasizer Ultra (Malvern Panalytical) and for mRNA encapsulation efficiency using Quant-iT RiboGreen RNA Assay Kit (ThermoFisher Scientific).
For each LNP composition, the lipid mix and mRNA solution were mixed at a 1:3 ratio by volume, respectively, on a NanoAssemblr Ignite (Precision Nanosystems) at a total flow rate of 9 mL/min. The resulting compositions were then loaded into Slide-A-Lyzer G2 dialysis cassettes (10 k MWCO) and dialyzed in 200 times sample volume of 1×PBS for 2 hours at room temperature with gentle stirring. The PBS was refreshed, and the compositions were further dialyzed for at least 14 hours at 4° C. with gentle stirring. The dialyzed compositions were then collected and concentrated by centrifugation at 3000×g using Amicon Ultra centrifugation filters (100 k MWCO). The concentrated particles were characterized for size, polydispersity, and particle concentration using Zetasizer Ultra (Malvern Panalytical) and for mRNA encapsulation efficiency using Quant-iT RiboGreen RNA Assay Kit (ThermoFisher Scientific).

Balb/c mice [3] = assay: EPO levels in plasma by EPO MSD kit after IV injection of EPO mRNA LNP; format: in vivo; details: Example 5 LNP (DOPE 35:16:46.5:2.5), 5 μg FLUC + 5 μg EPO
Description: as §1, §2, §3

Row | Structure (SMILES) | Bioluminescence (IV) Liver (Balb/c mice [1]) | Bioluminescence (IV) Lung (Balb/c mice [1]) | Bioluminescence (IV) Spleen (Balb/c mice [1]) | Bioluminescence (IV) Whole Body (Balb/c mice [1]) | Spleen: Liver Ratio (Balb/c mice [1]) | % EE [2] | hEPO (Balb/c mice [3])
1 | CCCCCCCCCCCOC(=O)CCCCCN(CCCCCCCC(=O)OC(CCCCCCCC)CCCCCCCC)CCNC(=O)NCCN(CCCCCCCC(=O)OC(CCCCCCCC)CCCCCCCC)CCCCCC(=O)OCCCCCCCCCCC [Compound 2246, 1-octylnonyl8-[2-[2-[[8-(1-octylnonoxy)-8-oxo-octyl]-(6-oxo-6-undecoxy-hexyl)amino]ethylcarbamoylamino]ethyl-(6-oxo-6-undecoxy-hexyl)amino]octanoate] | 1.8E+07 | 3.7E+03 | 1.3E+05 | 1.3E+08 | 0.007 | 94.9% | 3.6E+06
2 | CCCCCCCCCC(=O)OCCCCCCCN(CCCCCCCC(=O)OC(CCCCCCCC)CCCCCCCC)CCNC(=O)CCC(=O)NCCN(CCCCCCCOC(=O)CCCCCCCCC)CCCCCCCC(=O)OC(CCCCCCCC)CCCCCCCC [Compound 2272, 7-[2-[[4-[2-[7-decanoyloxyheptyl-[8-(1-octylnonoxy)-8-oxo-octyl]amino]ethylamino]-4-oxo-butanoyl]amino]ethyl-[8-(1-octylnonoxy)-8-oxo-octyl]amino]heptyl decanoate] | 1.8E+07 | 1.5E+04 | 1.0E+06 | 1.3E+08 | 0.055 | 92.6% | 1.8E+06
3 | CCCCCCCCCCCOC(=O)CCCCCN(CCCCCCCC(=O)OC(CCCCCCCC)CCCCCCCC)CCCNC(=O)CN(CC(=O)NCCCN(CCCCCCCC(=O)OC(CCCCCCCC)CCCCCCCC)CCCCCC(=O)OCCCCCCCCCCC)C(=O)CCN1CCCC1 [Compound 2353, 1-octylnonyl8-[3-[[2-[[2-[3-[[8-(1-octylnonoxy)-8-oxo-octyl]-(6-oxo-6-undecoxy-hexyl)amino]propylamino]-2-oxo-ethyl]-(3-pyrrolidin-1-ylpropanoyl)amino]acetyl]amino]propyl-(6-oxo-6-undecoxy-hexyl)amino]octanoate] | 9.7E+03 | 3.2E+04 | 1.3E+05 | 7.8E+04 | 7.617 | 97.0% | 9.7E+03
4 | CCCCCCCCCCCC(=O)OCCCCCN(CCCCCCCC(=O)OC(CCCCCCCC)CCCCCCCC)CCNC(=O)CCC(=O)NCCN(CCCCCCCC(=O)OC(CCCCCCCC)CCCCCCCC)CCCCCOC(=O)CCCCCCCCCCC [Compound 2354, 5-[2-[[4-[2-[5-dodecanoyloxypentyl-[8-(1-octylnonoxy)-8-oxo-octyl]amino]ethylamino]-4-oxo-butanoyl]amino]ethyl-[8-(1-octylnonoxy)-8-oxo-octyl]amino] pentyl dodecanoate] | 5.6E+06 | 6.2E+03 | 7.3E+05 | 4.5E+07 | 0.131 | 94.6% | 1.4E+06
5 | CCCCCCCCCCC(CC)OC(=O)CCCCCN(CCCCCCCC(=O)OC(CCCCCCCC)CCCCCCCC)CCNC(=O)CCC(=O)NCCN(CCCCCCCC(=O)OC(CCCCCCCC)CCCCCCCC)CCCCCC(=O)OC(CC)CCCCCCCCCC (centres unmarked) [Compound 2356, 1-octylnonyl 8-[[6-(1-ethylundecoxy)-6-oxo-hexyl]-[2-[[4-[2-[[6-(1-ethylundecoxy)-6-oxo-hexyl]-[8-(1-octylnonoxy)-8-oxo-octyl]amino]ethylamino]-4-oxo-butanoyl]amino]ethyl]amino]octanoate] | 1.3E+08 | 9.1E+03 | 1.3E+06 | 8.1E+08 | 0.010 | 95.0% | 1.3E+08
6 | CCCCCCCCCCCOC(=O)CCCCCN(CCCCCCCC(=O)OCCCC(CCCCC)CCCCC)CCNC(=O)/C=C/C(=O)NCCN(CCCCCCCC(=O)OCCCC(CCCCC)CCCCC)CCCCCC(=O)OCCCCCCCCCCC [Compound 2382, 4-pentylnonyl 8-[2-[[(E)-4-oxo-4-[2-[[8-oxo-8-(4-pentylnonoxy)octyl]-(6-oxo-6-undecoxy-hexyl)amino]ethylamino]but-2-enoyl]amino]ethyl-(6-oxo-6-undecoxy-hexyl)amino]octanoate] | 1.9E+07 | 2.1E+04 | 2.1E+06 | 1.5E+08 | 0.104 | 87.3% | 
7 | CCCCCCCCCCCOC(=O)CCCCCN(CCCCCCCC(=O)OC(CCCCCC)CCCCCCCC)CCNC(=O)CCC(=O)NCCN(CCCCCCCC(=O)OC(CCCCCC)CCCCCCCC)CCCCCC(=O)OCCCCCCCCCCC (centres unmarked) [Compound 2390, 1-hexylnonyl 8-[2-[[4-[2-[[8-(1-hexylnonoxy)-8-oxo-octyl]-(6-oxo-6-undecoxy-hexyl)amino]ethylamino]-4-oxo-butanoyl]amino]ethyl-(6-oxo-6-undecoxy-hexyl)amino]octanoate] | 1.9E+07 | 1.2E+04 | 1.7E+06 | 1.9E+08 | 0.094 | 90.6% | 
